Experimental data: patent US8299056B2 (Signal Pharmaceuticals, LLC, priority 2008, dated 2012)
Like-named read-outs stand apart in the source and are kept apart here.

Target: T1, Syk (Homo sapiens, UniProt P43405)
T1 construct: purchased Carna Biosciences
Assay: Syk HTRF assay
Type: biochemical
Experimental: Test compounds were prepared at a concentration of 1.5 mM in DMSO followed by 3-fold dilutions in Greiner […] polypropylene plates. A 1:4 dilution of compounds by 8 μL/well transfer from the polypropylene plates to 24 μL/well Assay Buffer in Costar 3710 384 well black plates was then performed. Kinases (13 μL/well) or Assay Buffer only (background controls; 50 mM HEPES pH 7.6, 1 mM DTT, 10 mM MgCl2, 0.01% Triton X100, 0.01% BSA and 0.1 mM EDTA) were added to Costar 3710 384-well black plates for the HTRF assays (Carna Biosciences) and compound was added from the 1:4 dilution plate. Syk start mix (87.5 μM ATP, 80 nM Substrate Peptide (American Peptide Company 332722) was added and the mixture was incubated at room temperature for 1 hour. Syk Stop Solution (120 mM EDTA in dilution buffer) was then added to the Syk HTRF assay plate and incubated at room temperature on a shaker for 2 minutes. Syk Antibody Mix (4.86 μg/mL DyLight 647 Streptavidin (Pierce 21824); 1 μg/mL Lance Eu-Anti-Phosphotyrosine (PerkinElmer AD0069)) was added to the Syk HTRF assay plate and the mixture was further incubated at room temperature for >4 h. Time resolved fluorescence was read in assay plates on a PerkinElmer EnVision. HTRF assays were performed using 320 nm excitation, 60 μs delay, 665 nm and 615 nm emission. Data was expressed by division of 665 nm by 615 nm emissions.

[1] = IC50 activity level, read-out: Activity Level
[2] = activity levels A-D, read-out: Activity Level (IC50 in the Syk HTRF assay)
[3] = read-out: Activity Level (Syk HTRF assay IC50)

| Structure (SMILES) | IC50 [1] | IC50 [2] | also measured |
| --- | --- | --- | --- |
| FC(F)(F)c1ccc(Nc2nc3cccc(Cc4ccncc4)n3n2)cc1 [Example 372, 5-(pyridin-4-ylmethyl)-N-(4-(trifluoromethyl)phenyl)-[1,2,4]triazolo[1,5-a]pyridin-2-amine] | – | 1000 to 10000 nM | – |
| Cc1cc(Nc2nc3cccc(N[C@H]4CC[C@@H](O)CC4)n3n2)cc2c1C(C)(C)C(=O)N2 [compound 109, cis-6-(5-(4-hydroxycyclohexylamino)-[1,2,4]triazolo[1,5-a]pyridin-2-ylamino)-3,3,4-trimethylindolin-2-one] | – | – | IC50 [3]: 0.005 to 250 nM |
| OC1CCC[C@@H]1Nc1cccc2nc(Nc3ccc(C(F)(F)F)cc3)nn12 (stereo in doubt) [Example 374, (1S,2S)-2-(2-(4-(trifluoromethyl)phenylamino)-[1,2,4]triazolo[1,5-a]pyridin-5-ylamino)cyclopentanol] | – | 0.005 to 250 nM | – |
| CN1C(=O)C(C)(C)c2ccc(Nc3nc4cccc(N[C@H]5CC[C@@H](O)CC5)n4n3)cc21 [Example 152, cis-6-(5-(4-hydroxycyclohexylamino)-[1,2,4]triazolo[1,5-a]pyridin-2-ylamino)-1,3-3-trimethylindolin-2-one] | – | – | IC50 [3]: 0.005 to 250 nM |
| C[C@]1(O)CC[C@H](Nc2cccc3nc(Nc4ccc(C(F)(F)F)cc4)nn23)CC1 [Example 384, cis-1-methyl-4-(2-(4-(trifluoromethyl)phenylamino)-[1,2,4]triazolo[1,5-a]pyridin-5-ylamino)cyclohexanol] | – | 0.005 to 250 nM | – |
| NCCCOc1cccc2nc(Nc3ccc(C(F)(F)F)cc3)nn12 [Example 321, 5-(3-aminopropoxy)-N-(4-(trifluoromethyl)phenyl)-[1,2,4]triazolo[1,5-a]pyridin-2-amine] | – | 1000 to 10000 nM | – |
| O[C@H]1CC[C@H](CNc2cccc3nc(Nc4ccc(C(F)(F)F)cc4)nn23)CC1 [Example 375, trans-4-((2-(4-(trifluoromethyl)phenylamino)-[1,2,4]triazolo[1,5-a]pyridin-5-ylamino)methyl)cyclohexanol] | – | 1000 to 10000 nM | – |
| O[C@H]1CCC[C@H]1Nc1cccc2nc(Nc3ccc(C(F)(F)F)cc3)nn12 (stereo in doubt) [Example 376, (1S,2R)-2-(2-(4-(trifluoromethyl)phenylamino)-[1,2,4]triazolo[1,5-a]pyridin-5-ylamino)cyclopentanol] | – | 1000 to 10000 nM | – |
| c1ccc(Nc2nc3cccc(-c4cccc(-c5ncn[nH]5)c4)n3n2)cc1 [compound 62, 5-(3-(1H-1,2,4-triazol-5-yl)phenyl)-N-phenyl-[1,2,4]triazolo[1,5-a]pyridin-2-amine] | – | – | IC50 [3]: 250 to 500 nM |
| OC[C@H]1CCN(c2cccc3nc(Nc4ccc(C(F)(F)F)cc4)nn23)C1 [Example 327, (S)-(1-(2-(4-(trifluoromethyl)phenylamino)-[1,2,4]triazolo[1,5-a]pyridin-5-yl)pyrrolidin-3-yl)methanol] | – | 250 to 500 nM | – |
| OCCOc1cccc2nc(Nc3ccc(C(F)(F)F)cc3)nn12 [Example 315, 2-(2-(4-(trifluoromethyl)phenylamino)-[1,2,4]triazolo[1,5-a]pyridin-5-yloxy)ethanol] | – | 1000 to 10000 nM | – |
| CN1Cc2cc(Nc3nc4cccc(N[C@H]5CC[C@@H](O)CC5)n4n3)ccc2C1=O [Example 135, cis-5-(5-(4-hydroxycyclohexylamino)-[1,2,4]triazolo[1,5-a]pyridin-2-ylamino)-2-methylisoindolin-1-one] | – | – | IC50 [3]: 0.005 to 250 nM |
| CNC(=O)c1ccc(Nc2nc3cccc(-c4cccc(-c5cnc[nH]5)c4)n3n2)cc1 [compound 7, 4-(5-(3-(1H-imidazol-5-yl)phenyl)-[1,2,4]triazolo[1,5-a]pyridin-2-ylamino)-N-methylbenzamide] | – | – | IC50 [3]: 0.005 to 250 nM |
| Cc1n[nH]c2cc(Nc3nc4cccc(Cc5cc[nH]c(=O)c5)n4n3)ccc12 [Example 183, 4-((2-(3-methyl-1H-indazol-6-ylamino)-[1,2,4]triazolo[1,5-a]pyridin-5-yl)methyl)pyridin-2(1H)-one] | – | – | IC50 [3]: 0.005 to 250 nM |
| O[C@H]1CC[C@@H](Nc2cccc3nc(Nc4ccc(F)cc4)nn23)CC1 [Example 319, cis-4-(2-(4-fluorophenylamino)-[1,2,4]triazolo[1,5-a]pyridin-5-ylamino)cyclohexanol] | – | 0.005 to 250 nM | – |
| C[C@H](CO)Nc1cccc2nc(Nc3ccc(C(F)(F)F)cc3)nn12 [Example 328, (R)-2-(2-(4-(trifluoromethyl)phenylamino)-[1,2,4]triazolo[1,5-a]pyridin-5-ylamino)propan-1-ol] | – | 1000 to 10000 nM | – |
| CC(NCc1cccc2nc(Nc3ccc(C(F)(F)F)cc3)nn12)C(N)=O (racemic) [Example 233, (±)-2-((2-(4-(trifluoromethyl)phenylamino)-[1,2,4]triazolo[1,5-a]pyridin-5-yl)methylamino)propanamide] | – | 500 to 1000 nM | – |
| Cn1cnc2cc(Nc3nc4cccc(-c5ccccc5)n4n3)ccc21 [compound 55, N-(1-methyl-1H-benzo[d]imidazol-5-yl)-5-phenyl-[1,2,4]triazolo[1,5-a]pyridin-2-amine] | – | – | IC50 [3]: 250 to 500 nM |
| COc1cncc(Nc2nc3cccc(N[C@H]4CC[C@@H](O)CC4)n3n2)c1 [Example 368, cis-4-(2-(5-methoxypyridin-3-ylamino)-[1,2,4]triazolo[1,5-a]pyridin-5-ylamino)cyclohexanol] | – | 500 to 1000 nM | – |

The next lines start with results.

| IC50 [1] | IC50 [2] | Structure (SMILES) | also measured |
| --- | --- | --- | --- |
| 500 to 1000 nM | – | C[C@@H](CO)Cc1cccc2nc(Nc3ccccc3)nn12 [Example 479, (R)-2-methyl-3-(2-(phenylamino)-[1,2,4]triazolo[1,5-a]pyridin-5-yl)propan-1-ol] | – |
| 1000 to 10000 nM | – | O=C(c1ccccc1)c1cccc2nc(Nc3ccccc3)nn12 [Example 509, phenyl(2-(phenylamino)-[1,2,4]triazolo[1,5-a]pyridin-5-yl)methanone] | – |
| 500 to 1000 nM | – | Nc1nccc2ccc(-c3cccc4nc(Nc5ccccc5)nn34)cc12 [Example 489, 7-(2-(phenylamino)-[1,2,4]triazolo[1,5-a]pyridin-5-yl)isoquinolin-1-amine] | – |
| 500 to 1000 nM | – | Cc1cc(-c2cccc3nc(Nc4ccccc4)nn23)no1 [Example 473, 5-(5-methylisoxazol-3-yl)-N-phenyl-[1,2,4]triazolo[1,5-a]pyridin-2-amine] | – |
| 0.005 to 250 nM | – | CNC(=O)c1ccc(Nc2nc3cccc(NC4CCCC4)n3n2)cc1 [Example 400, 4-(5-(cyclopentylamino)-[1,2,4]triazolo[1,5-a]pyridin-2-ylamino)-N-methylbenzamide] | – |
| 0.005 to 250 nM | – | OCCNc1cc(-c2cccc3nc(Nc4ccccc4)nn23)ccn1 [Example 443, 2-(4-(2-(phenylamino)-[1,2,4]triazolo[1,5-a]pyridin-5-yl)pyridin-2-ylamino)ethanol] | – |
| 1000 to 10000 nM | – | c1ccc(Nc2nc3cccc(NC4CCCNC4)n3n2)cc1 (stereo in doubt) [Example 497, (R)-N^2-phenyl-N^5-(piperidin-3-yl)-[1,2,4]triazolo[1,5-a]pyridin-2,5-diamine] | – |
| 0.005 to 250 nM | – | CN(C)Cc1nc2cc(-c3cccc4nc(Nc5ccccc5)nn34)ccc2[nH]1 [Example 486, 5-(2-((dimethylamino)methyl)-1H-benzo[d]imidazol-5-yl)-N-phenyl-[1,2,4]triazolo[1,5-a]pyridin-2-amine] | – |
| 0.005 to 250 nM | – | CC1(C)C(=O)Nc2cc(Nc3nc4cccc(N5CCOCC5)n4n3)ccc21 [Example 571, 3,3-dimethyl-6-(5-morpholino-[1,2,4]triazolo[1,5-a]pyridin-2-ylamino)indolin-2-one] | – |
| 0.005 to 250 nM | – | c1cncc(Nc2nc3cccc(NC4CCCNC4)n3n2)c1 (stereo in doubt) [Example 433, (S)-N^5-(piperidin-3-yl)-N^2-(pyridin-3-yl)-[1,2,4]triazolo[1,5-a]pyridin-2,5-diamine] | – |
| 250 to 500 nM | – | NCCOc1cc(-c2cccc3nc(Nc4ccccc4)nn23)ccn1 [Example 444, 5-(2-(2-aminoethoxy)pyridin-4-yl)-N-phenyl-[1,2,4]triazolo[1,5-a]pyridin-2-amine] | – |
| 0.005 to 250 nM | – | c1ccc(Nc2nc3cccc(CC4CCNCC4)n3n2)cc1 [Example 482, N-phenyl-5-(piperidin-4-ylmethyl)-[1,2,4]triazolo[1,5-a]pyridin-2-amine] | – |
| 1000 to 10000 nM | – | NC(=O)[C@H]1CC[C@@H](Nc2cccc3nc(Nc4ccccc4)nn23)CC1 [Example 519, cis-4-(2-(phenylamino)-[1,2,4]triazolo[1,5-a]pyrridin-5-ylamino)cyclohexanecarboxamide] | – |
| 1000 to 10000 nM | – | NC(=O)[C@H]1CC[C@H](Oc2cccc3nc(Nc4ccc(C(F)(F)F)cc4)nn23)CC1 (stereo in doubt) [Example 405, trans-4-(2-(4-(trifluoromethyl)phenylamino)-[1,2,4]triazolo[1,5-a]pyridin-5-yloxy)cyclohexanecarboxamide] | – |
| 250 to 500 nM | – | O[C@@H]1CC[C@H](Nc2cccc3nc(Nc4ccc(C(F)(F)F)cc4)nn23)C1 [Example 421, (1R,3S)-3-(2-(4-(trifluoromethyl)phenylamino)-[1,2,4]triazolo[1,5-a]pyridin-5-ylamino)cyclopentanol] | – |
| – | 250 to 500 nM | CN(C)c1ccc(Nc2nc3cccc(N[C@H]4CC[C@@H](O)CC4)n3n2)cn1 [Example 392, cis-4-(2-(6-(dimethylamino)pyridin-3-ylamino)-[1,2,4]triazolo[1,5-a]pyridin-5-ylamino)cyclohexanol] | – |
